Laboratory results from PMC12064818, “A general assay platform to study protein pharmacology using ligand-dependent structural dynamics” (Nature Communications, 2025).

target: T1, FLuc-C-HiBiT (Photinus pyralis, UniProt P08659); assay: biochemical; conditions: enzyme activity, 10 uM ATP; read-out: IC50 or SDR50 (mM) / FLuc E
T1 construct: firefly luciferase with C-terminal HiBiT tag, E. coli expressed
T1 sequence (P08659 whole entry, looked up): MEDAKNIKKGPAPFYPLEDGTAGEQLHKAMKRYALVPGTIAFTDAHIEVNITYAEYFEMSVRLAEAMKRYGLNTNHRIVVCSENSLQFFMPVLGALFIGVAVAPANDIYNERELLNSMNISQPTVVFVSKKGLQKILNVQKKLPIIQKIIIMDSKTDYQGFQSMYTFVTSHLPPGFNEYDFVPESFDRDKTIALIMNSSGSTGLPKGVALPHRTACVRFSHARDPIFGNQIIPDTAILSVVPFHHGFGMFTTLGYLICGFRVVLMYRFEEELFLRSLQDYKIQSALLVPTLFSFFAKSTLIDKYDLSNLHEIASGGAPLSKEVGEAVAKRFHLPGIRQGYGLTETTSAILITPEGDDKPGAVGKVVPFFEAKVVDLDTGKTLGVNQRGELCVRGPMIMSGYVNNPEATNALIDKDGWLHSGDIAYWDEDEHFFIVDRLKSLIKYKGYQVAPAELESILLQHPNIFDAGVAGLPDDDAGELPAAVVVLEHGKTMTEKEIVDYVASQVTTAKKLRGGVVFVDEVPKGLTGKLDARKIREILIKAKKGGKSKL

Row | SMILES | IC50 [µM]
1 | Cc1cc(CNC(=O)CC2C=C[S+](=O)([O-])C2)c2[nH]c(-c3ccccc3)c(C)c2c1 (stereo not shown) [NCGC00441154-01] | 11.1
2 | CCN(c1ncnc2c1cnn2-c1ccc(C)cc1)C1CCCCC1 [NCGC00138994-01] | 0.881
3 | COc1ccc(NC(=O)c2cc3c(=O)[nH]c(C)cn3n2)cc1OC [NCGC00453925-01] | 9.89
4 | CN1Cc2ccc(C(=O)NCCOc3ccccc3)cc2OCC1=O [NCGC00418504-01] | 20.2
5 | CN(CCO)c1ccc(-c2nc(CCCc3ccccc3)no2)cn1 [NCGC00438483-01] | 12.4
6 | Clc1ccc(-c2cc3c(cn2)CN(Cc2ccncc2)CCN3)cc1 [NCGC00411101-01] | 16.1
7 | Cc1ccc(C(=O)Nc2ccc(-c3nc4ccccc4s3)cc2C)cc1C [NCGC00103062-01] | > 30
8 | Oc1ccc(-c2nc(C3CC3)nc3c2CCN(Cc2cccc(F)c2)CC3)cc1 [NCGC00480349-01] | > 30
9 | COc1ccc(-c2nc3ccccc3s2)cc1NC(=O)c1ccc(F)cc1 [NCGC00103032-01] | > 30
10 | COc1ccc(C(=O)N2CCCC(c3nc(-c4ccccc4)no3)CCNC(=O)CC2)c(OC)n1 (stereo not shown) [NCGC00465834-01] | 11.1
11 | CN1CCN(c2ccc(-c3cccc(N)c3)nn2)CC1 [NCGC00432705-01] | 6.24
12 | Cc1ccc(C(=O)Nc2ccc(-c3nc4ccccc4s3)c(O)c2)c(C)c1 [NCGC00134691-01] | > 30
13 | COc1cccc2cc(-c3nnc(-c4ccc(Cl)cc4)o3)c(=O)oc12 [NCGC00098120-01] | 3.51
14 | O=C1c2cnc(-c3cccc(CO)c3)nc2OCCN1c1ccccc1 [NCGC00413559-01] | 11.4
15 | COc1ccc(CC(=O)Nc2ccc(-c3nc4ccccc4s3)cc2Cl)cc1 [NCGC00137808-01] | > 30
16 | COc1ccccc1-c1nc(-c2ccc(C(=O)O)cc2)no1 [NCGC00168102-02] | 1.97
17 | O=C(Nc1ccc(-c2nc3ccccc3s2)c(O)c1)c1ccc(Br)cc1 [NCGC00098662-01] | > 30
18 | CN(Cc1cnn(C)c1)C(=O)c1csc2nc(-c3ccc(C(F)(F)F)cc3)cn12 [NCGC00425000-01] | 4.42
19 | O=C(c1cc(-c2ccccc2O)on1)N1CCCCC1 [NCGC00105578-01] | 9.89
20 | N#Cc1c(-n2ncnc2-c2cccc(Cl)c2)sc2c1CCCCC2 [NCGC00099368-01] | 1.97
21 | NC(=O)c1cccc(-c2cc3c(cn2)CN(Cc2ccccc2)CCN3)c1 [NCGC00411232-01] | 20.2
22 | COc1ccc(-c2cc(N3CCCC(NC(=O)c4cccs4)C3)[nH]n2)cc1 (stereo not shown) [NCGC00437586-01] | 9.89
23 | CC(C)(C)CC(=O)N1C[C@@H]2C[C@H](C1)c1ccc(NC(=O)Nc3cccc(F)c3)c(=O)n1C2 [NCGC00395227-01] | > 30
24 | O=C1CCC2(C(=O)NCCc3ccccc3)CCCC=C2N1c1ccccc1 (stereo not shown) [NCGC00472135-01] | 15.7
25 | c1nc(N2C[C@@H](c3ccc4c(c3)OCO4)[C@@H]3[C@H]2C2CCN3CC2)c2nc[nH]c2n1 [NCGC00444647-01] | > 30
26 | Cc1cccc(N2CCN(C(=O)CSCc3ccc(F)cc3)CC2)c1C [NCGC00140140-01] | > 30

Row | SMILES | IC50 [µM]
27 | Cc1ccc(-n2nc(C)c([C@@H]3C=C[C@@H](NC(=O)Nc4ccc(Cl)cc4)C3)c2C)cc1Cl [NCGC00400070-01] | 9.89
28 | Fc1cc(Nc2cnc3ccc(-c4ccccc4)nn23)cc(N2CCOCC2)c1 [NCGC00412489-01] | 16.1
29 | CC(C)c1ccc(NC(=O)c2ccc(CN3C(=O)NC4(CCOCC4)C3=O)cc2)cc1 [NCGC00454608-01] | 3.51
30 | Cc1cn2nc(C(=O)Nc3ccc4c(c3)OCCO4)cc2c(N(C)Cc2ccccc2)n1 [NCGC00454161-01] | 9.89
31 | Cc1csc(NC(=O)c2nc3c(o2)CCN(Cc2cccc(F)c2)CC3)n1 [NCGC00413280-01] | 14.3
32 | CCCCNc1nc(N)c2[nH]c(=O)n(Cc3ccc(OCCN(C)C)nc3)c2n1 [NCGC00387452-01] | > 30
33 | CCOc1ccc(-c2cc(CCCC(=O)NCCc3ccc(SC)cc3)no2)cc1 [NCGC00110854-01] | 3.13
34 | O=C(N1c2ccccc2CC1c1noc(C2CCOCC2)n1)C1(c2ccccc2)CC1 (stereo not shown) [NCGC00471505-01] | 12.4
35 | O=C(O)c1cccc(-c2noc(-c3ccc(C(F)(F)F)cc3)n2)c1 [NCGC00168770-01] | 0.00351
36 | COC(=O)C1CCN(c2csc3ccc(C)cc3c2=O)CC1 [NCGC00132290-01] | 7.85
37 | C[S+](=O)([O-])Nc1ccc(-c2nc3ccccc3s2)cc1 [NCGC00118996-01] | 2.21
38 | O=C(Nc1cccc(Br)c1)c1cc(-c2ccc3c(c2)OCCO3)on1 [NCGC00118911-01] | 0.989
39 | CC(=O)N1CCNc2cc(-c3ccccc3F)ncc2C1 [NCGC00411070-01] | 28.5
40 | Fc1ccccc1-c1nc(-c2ccccc2)no1 [NCGC00058026-03] | 1.57
41 | O=C(Nc1ccc(-c2nc3ccccc3s2)cc1)c1c(F)c(F)c(F)c(F)c1F [NCGC00598374-01] | > 30
42 | Fc1ccc(Nc2nc(-c3ccccc3)no2)cc1 [NCGC00422295-01] | 6.24
43 | Cc1nn(-c2cccc(Br)c2)c(C)c1[C@@H]1C=C[C@@H](NC(=O)CC(C)(C)CC(=O)O)C1 [NCGC00401591-01] | > 30
44 | Cc1ccc(C(=O)Nc2cccc(C(=O)O)c2)cc1 [MLS000530214-02] | 0.0556
45 | OCC1CCN(c2ncnc3c2cnn3-c2ccccc2)CC1 [NCGC00608116-01] | 12.4
46 | Cc1ccc(N2CCN(c3nc(C(=O)O)cs3)CC2)cc1 [NCGC00432723-01] | 1.97
47 | CCNC(=O)N[C@@H]1C=C[C@@H](c2c(C)nn(-c3ccc(C(F)(F)F)cc3)c2C)C1 [NCGC00397974-01] | 14.3
48 | CC(C)CN1CCNc2cc(-c3ccccc3)ncc2C1 [NCGC00411061-01] | 22.6
49 | CCOc1ccc(C(=O)Nc2ccc(-c3nc4ccccc4s3)c(C)c2)cc1OCC [NCGC00137842-01] | > 30
50 | O=C(O)c1cccc(-c2noc(-c3cccc(C(F)(F)F)c3)n2)c1 [NCGC00168769-01] | 0.0157
51 | COc1cccc(OCc2nc3ccccc3n2Cc2ccccc2)c1 [NCGC00116123-01] | > 30
52 | COc1ccc(-c2noc([C@@H]3C[C@@H](O)CN3Cc3cc4ccccc4o3)n2)cc1 [NCGC00400688-01] | 16.1

Other lines, results leading:

Row | IC50 [µM] | SMILES
53 | 16.1 | c1ccc(-c2cnc(Nc3ccc4c(c3)OCCO4)c3c2CCO3)cc1 [NCGC00412769-01]
54 | > 30 | Cc1ccc(-c2cccc(COc3cnc4c(ccn4CC(=O)O)c3)c2)c(C)c1 [NCGC00418282-01]
55 | > 30 | Cc1cccc(C(=O)Nc2ccc(-c3nc4ccccc4s3)cc2Cl)c1 [NCGC00137810-01]
56 | 14.3 | COc1ccc(-c2cc3c(cn2)CN(Cc2cccnc2)CCN3)cc1F [NCGC00411039-01]
57 | 8.05 | Cc1ccc(-c2cccc(COc3cnc4c(ccn4CC(=O)O)c3)c2)cc1 [NCGC00418171-01]
58 | 11.1 | CCC(=O)N1CCN(c2nc3c(s2)CC(C(=O)O)CC3)CC1 (stereo not shown) [NCGC00432761-01]
59 | > 30 | Nc1nn(-c2ccccc2)nc1C(=O)OCc1ccccc1 [NCGC00102837-01]
60 | 7.85 | CCc1ccc(C(=O)Nc2ccc3c(N4CCOCC4)ncnc3c2)cc1 [NCGC00425539-01]
61 | > 30 | O=C(CSc1nnc2ccccn12)Nc1cccc(-c2nc3ccccc3s2)c1 [NCGC00688053-01]
62 | > 30 | CN(C)C1CCN(c2ccc(-c3nc(CCCc4ccccc4)no3)cn2)CC1 [NCGC00437613-01]
63 | > 30 | COc1cccc(-n2cc(CN(C)c3ncncn3)cn2)c1 [NCGC00424283-01]
64 | 3.13 | O=C(O)CCC1CCN(c2cc(NC3CC3)ncn2)CC1 [NCGC00432803-01]
65 | 22.6 | c1ccc(Nc2ncc(-c3cccnc3)c3c2OCC3)cc1 [NCGC00412806-01]
66 | 8.81 | CN(C)c1cccc(C(=O)Nc2ccc(-c3nc4ccccc4s3)cc2)c1 [NCGC00137782-01]
67 | > 30 | COCC(=O)N1CCc2nc(C)nc(-c3ccc(OC)cc3)c2C1 [NCGC00480441-01]
68 | 11.1 | COc1ccc(C(=O)N[C@@H]2CN(C(=O)Nc3ccc(OC(F)(F)F)cc3)CCC[C@H]2O)cc1 [NCGC00401608-01]
69 | 5.56 | CCNC(=O)N1CC(Oc2ccc(-c3nc(-c4ccccc4)no3)cc2)C1 [NCGC00441125-01]

Row | IC50 [µM] | SMILES
70 | 12.4 | c1ccc(COc2ccc(CN3CCSCC3)cc2)nc1 [NCGC00446150-01]
71 | 1.11 | O=C(O)c1ccc(-c2noc(-c3ccccc3Cl)n2)cc1 [NCGC00168099-01]
72 | 10.1 | COCCN1CCC2(C1)CN(C)c1ccc(C(=O)Nc3ccn(C)n3)cc12 (stereo not shown) [NCGC00419376-01]
73 | 0.7 | Cc1ccc(-n2ncc3c(N4CCCCCC4)ncnc32)cc1Cl [NCGC00139187-01]
74 | 1.57 | Cc1ccc(-n2ncc3c(N(C)Cc4ccccc4)ncnc32)cc1 [NCGC00139028-01]
75 | 11.1 | CCN1c2cc(C(=O)Nc3ccc4c(c3)OCCO4)ccc2C(=O)N2CCCC21 (stereo not shown) [NCGC00452150-01]
76 | 7.85 | COc1ccc(Nc2nc(-c3cccc(OC)c3)no2)cc1 [NCGC00422374-01]
77 | 16.1 | O=C(Nc1ccccc1)c1nc2c(o1)CCN(CC1CC1)CC2 [NCGC00413351-01]
78 | 2.48 | CC(C)(C)C1CCc2nc(NC(=O)c3cccc(Cl)c3)sc2C1 (stereo not shown) [NCGC00119231-01]
79 | 3.94 | Cc1ccc(NC(=O)Nc2ccc(C)n(CC(=O)NC(C)(C)C)c2=O)cc1 [NCGC00430790-01]
80 | 16.1 | Cc1oc(C(O)c2ccccc2F)nc1C(=O)Nc1ccc(N2CCOCC2)cc1 (stereo not shown) [NCGC00417991-01]
81 | 0.0785 | Cc1c(C(=O)Nc2ccc(C(=O)O)cc2)nnn1-c1ccccc1 [NCGC00141304-01]
82 | 8.81 | O=C(Nc1cccc(-c2ccc(N3CCCC3)nn2)c1)c1c(F)cccc1F [NCGC00427548-01]
83 | 7 | COc1ccc(-c2cc3c(=O)n(CCNC(=O)c4c(F)cccc4Cl)ccn3n2)cc1 [NCGC00456907-01]
84 | 4.53 | CSCC(=O)Nc1nc2c(s1)C[C@]1(C)CC[C@@H]3[C@H](OC(=O)[C@H]3C)[C@H]1[C@@H]2C [NCGC00401416-01]
85 | 12.4 | CCOc1cc(C(=O)Nc2ccc(-c3nc4ccccc4s3)cc2Cl)cc(OCC)c1OCC [NCGC00137812-01]
